Reference: ChEMBL document CHEMBL4190187, “Discovery of pyrazolopyrimidine derivatives as novel inhibitors of ataxia telangiectasia and rad3 related protein (ATR)” (Bioorg Med Chem Lett, 2017)

Tests used:
[1] = biological target: Dual specificity mitogen-activated protein kinase kinase 4 (Mus musculus) (UniProt P47809); assay: Inhibition of recombinant mouse MKK4 (34 to end residues) at 1 uM using inactive JNK1a1 as substrate after 40 mins in presence of [gamma-33P]ATP by scintillation counting method
[2] = biological target: Homeodomain-interacting protein kinase 1 (Homo sapiens) (UniProt Q86Z02); assay: Inhibition of recombinant human HIPK1 (158 to 555 residues) at 1 uM using myelin basic protein as substrate after 40 mins in presence of [gamma-33P]ATP by scintillation counting method
[3] = biological target: Rhodopsin kinase GRK7 (Homo sapiens) (UniProt Q8WTQ7); assay: Inhibition of recombinant full-length human GRK7 at 1 uM using casein as substrate after 40 mins in presence of [gamma-33P]ATP by scintillation counting method
[4] = biological target: Serine/threonine-protein kinase mTOR (Homo sapiens) (UniProt P42345); assay: Inhibition of recombinant full-length human mTOR at 1 uM after 40 mins in presence of [gamma-33P]ATP by scintillation counting method
[5] = biological target: Protein kinase C theta type (Homo sapiens) (UniProt Q04759); assay: Inhibition of recombinant full-length human PKCtheta at 1 uM using histone H1 as substrate after 40 mins in presence of [gamma-33P]ATP by scintillation counting method
Protein kinase C theta type (Homo sapiens), sequence (Q04759 whole entry, looked up): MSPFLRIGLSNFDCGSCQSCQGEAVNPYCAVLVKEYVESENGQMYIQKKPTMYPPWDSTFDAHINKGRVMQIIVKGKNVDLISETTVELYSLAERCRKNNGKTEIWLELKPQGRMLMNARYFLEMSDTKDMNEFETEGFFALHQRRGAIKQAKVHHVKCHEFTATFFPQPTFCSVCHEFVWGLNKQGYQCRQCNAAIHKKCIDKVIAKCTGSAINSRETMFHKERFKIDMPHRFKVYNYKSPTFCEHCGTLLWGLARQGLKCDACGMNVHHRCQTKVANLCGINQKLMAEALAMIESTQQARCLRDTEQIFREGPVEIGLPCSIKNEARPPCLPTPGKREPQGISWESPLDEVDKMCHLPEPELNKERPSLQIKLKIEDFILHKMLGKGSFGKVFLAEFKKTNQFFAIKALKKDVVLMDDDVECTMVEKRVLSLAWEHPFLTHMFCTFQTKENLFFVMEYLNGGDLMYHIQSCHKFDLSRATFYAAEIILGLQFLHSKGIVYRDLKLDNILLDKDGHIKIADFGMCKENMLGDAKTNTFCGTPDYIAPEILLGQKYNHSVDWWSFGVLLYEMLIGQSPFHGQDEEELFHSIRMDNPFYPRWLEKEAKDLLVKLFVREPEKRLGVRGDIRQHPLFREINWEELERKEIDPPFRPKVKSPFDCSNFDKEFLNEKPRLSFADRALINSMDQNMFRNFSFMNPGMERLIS

[6] = biological target: Dual specificity mitogen-activated protein kinase kinase 6 (Homo sapiens) (UniProt P52564); assay: Inhibition of recombinant human MKK6 (4 to end residues) at 1 uM using inactive SAPK2a as substrate after 40 mins in presence of [gamma-33P]ATP by scintillation counting method
[7] = biological target: Serine/threonine-protein kinase ULK3 (Homo sapiens) (UniProt Q6PHR2); assay: Inhibition of recombinant full-length human ULK3 at 1 uM using casein as substrate after 40 mins in presence of [gamma-33P]ATP by scintillation counting method
Serine/threonine-protein kinase ULK3 (Homo sapiens), sequence (Q6PHR2 whole entry): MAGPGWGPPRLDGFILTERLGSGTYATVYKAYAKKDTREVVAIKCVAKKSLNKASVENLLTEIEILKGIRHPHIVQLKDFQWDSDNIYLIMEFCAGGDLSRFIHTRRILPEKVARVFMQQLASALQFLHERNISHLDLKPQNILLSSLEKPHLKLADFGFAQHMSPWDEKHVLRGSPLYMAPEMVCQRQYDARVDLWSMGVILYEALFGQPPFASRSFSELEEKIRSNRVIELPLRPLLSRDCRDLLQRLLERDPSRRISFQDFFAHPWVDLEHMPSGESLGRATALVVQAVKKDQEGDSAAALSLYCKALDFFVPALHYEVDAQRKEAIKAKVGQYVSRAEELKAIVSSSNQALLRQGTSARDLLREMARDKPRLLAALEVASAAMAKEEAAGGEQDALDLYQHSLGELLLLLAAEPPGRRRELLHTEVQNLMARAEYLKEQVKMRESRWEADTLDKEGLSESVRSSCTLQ

[8] = biological target: Receptor-type tyrosine-protein kinase FLT3 (Homo sapiens) (UniProt P36888); assay: Inhibition of recombinant human Flt3 (564 to end residues) at 1 uM using EAIYAAPFAKKK as substrate after 40 mins in presence of [gamma-33P]ATP by scintillation counting method
[9] = biological target: Casein kinase I isoform gamma-2 (Homo sapiens) (UniProt P78368); assay: Inhibition of recombinant human CK1gamma2 (18 to end residues) at 1 uM using KRRRALS(p)VASLPGL s substrate after 40 mins in presence of [gamma-33P]ATP by scintillation counting method
Casein kinase I isoform gamma-2 (Homo sapiens), sequence (P78368 whole entry, looked up, canonical isoform): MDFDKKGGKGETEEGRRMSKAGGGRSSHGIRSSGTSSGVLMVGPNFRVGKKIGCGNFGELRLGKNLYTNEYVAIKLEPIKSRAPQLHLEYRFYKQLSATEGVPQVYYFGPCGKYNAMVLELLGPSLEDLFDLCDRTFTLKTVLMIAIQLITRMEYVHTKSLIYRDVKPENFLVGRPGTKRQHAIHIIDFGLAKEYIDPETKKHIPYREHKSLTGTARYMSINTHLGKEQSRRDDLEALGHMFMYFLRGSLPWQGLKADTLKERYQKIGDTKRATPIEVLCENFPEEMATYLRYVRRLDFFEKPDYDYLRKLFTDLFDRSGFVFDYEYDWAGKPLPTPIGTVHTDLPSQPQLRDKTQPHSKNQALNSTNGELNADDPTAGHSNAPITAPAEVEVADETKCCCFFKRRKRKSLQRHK

[10] = biological target: PI3K p110 beta/p85 beta (Mus musculus) (UniProt Q8BTI9+O08908); assay: Inhibition of recombinant full-length mouse p110b/p85b at 1 uM using phosphatidylinositol 4,5-bisphosphate as substrate after 40 mins in presence of [gamma-33P]ATP by scintillation counting method; format: protein-complex assay
[11] = biological target: Serine/threonine-protein kinase A-Raf (Homo sapiens) (UniProt P10398); assay: Inhibition of recombinant human A-Raf (273 to end residues) at 1 uM using myelin basic protein as substrate after 40 mins in presence of [gamma-33P]ATP by scintillation counting method
Serine/threonine-protein kinase A-Raf (Homo sapiens), sequence (P10398 whole entry): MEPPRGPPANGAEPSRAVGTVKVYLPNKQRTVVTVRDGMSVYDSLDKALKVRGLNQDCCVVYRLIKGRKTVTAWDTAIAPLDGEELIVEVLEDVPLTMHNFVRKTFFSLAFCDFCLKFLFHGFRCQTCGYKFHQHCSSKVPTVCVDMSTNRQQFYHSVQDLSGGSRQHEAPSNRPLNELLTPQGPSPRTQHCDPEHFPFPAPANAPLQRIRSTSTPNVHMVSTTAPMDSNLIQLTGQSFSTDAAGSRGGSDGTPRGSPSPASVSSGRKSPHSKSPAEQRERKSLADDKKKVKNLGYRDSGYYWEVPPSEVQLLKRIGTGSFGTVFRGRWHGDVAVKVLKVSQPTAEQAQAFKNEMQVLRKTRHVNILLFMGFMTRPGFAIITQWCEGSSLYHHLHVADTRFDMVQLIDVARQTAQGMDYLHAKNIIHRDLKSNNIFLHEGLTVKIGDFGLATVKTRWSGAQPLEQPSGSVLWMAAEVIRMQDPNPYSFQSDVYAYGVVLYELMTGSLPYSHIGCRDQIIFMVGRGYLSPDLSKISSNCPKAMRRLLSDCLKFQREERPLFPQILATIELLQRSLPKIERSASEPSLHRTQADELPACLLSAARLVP

[12] = biological target: CDK3/Cyclin E (Homo sapiens) (UniProt P24864+Q00526); assay: Inhibition of recombinant full-length human CDK3/Cyclin E at 1 uM using histone H1 as substrate after 40 mins in presence of [gamma-33P]ATP by scintillation counting method; format: protein-complex assay
[13] = biological target: Protein kinase C epsilon type (Homo sapiens) (UniProt Q02156); assay: Inhibition of recombinant human PKCepsilon (2 to end residues) at 1 uM using ERMRPRKRQGSVRRRV as substrate after 40 mins in presence of [gamma-33P]ATP by scintillation counting method
[14] = biological target: Tyrosine-protein kinase SYK (Homo sapiens) (UniProt P43405); assay: Inhibition of recombinant full-length human Syk at 1 uM using poly(Glu,Tyr) 4:1 as substrate after 40 mins in presence of [gamma-33P]ATP by scintillation counting method
[15] = biological target: Mitogen-activated protein kinase kinase kinase 9 (Homo sapiens) (UniProt P80192); assay: Inhibition of recombinant human MLK1 (134 to 414 residues) at 1 uM using casein as substrate after 40 mins in presence of [gamma-33P]ATP by scintillation counting method
[16] = Apparent volume of distribution in mouse at 2 mg/kg, iv or 10 mg/kg, po; format: ADME, organism-based; details: in vivo, read-out: Vz
[17] = biological target: Serine/threonine-protein kinase N1 (Homo sapiens) (UniProt Q16512); assay: Inhibition of recombinant human PRK1 (498 to end residues) at 1 uM using KKLNRTLSFAEPG as substrate after 40 mins in presence of [gamma-33P]ATP by scintillation counting method
[18] = biological target: Tyrosine-protein kinase HCK (Homo sapiens) (UniProt P08631); assay: Inhibition of recombinant human activated Hck (230 to 497 residues) at 1 uM using GGMEDIYFEFMGGKKK as substrate after 40 mins in presence of [gamma-33P]ATP by scintillation counting method
Tyrosine-protein kinase HCK (Homo sapiens), sequence (P08631 2-526 limits assumed): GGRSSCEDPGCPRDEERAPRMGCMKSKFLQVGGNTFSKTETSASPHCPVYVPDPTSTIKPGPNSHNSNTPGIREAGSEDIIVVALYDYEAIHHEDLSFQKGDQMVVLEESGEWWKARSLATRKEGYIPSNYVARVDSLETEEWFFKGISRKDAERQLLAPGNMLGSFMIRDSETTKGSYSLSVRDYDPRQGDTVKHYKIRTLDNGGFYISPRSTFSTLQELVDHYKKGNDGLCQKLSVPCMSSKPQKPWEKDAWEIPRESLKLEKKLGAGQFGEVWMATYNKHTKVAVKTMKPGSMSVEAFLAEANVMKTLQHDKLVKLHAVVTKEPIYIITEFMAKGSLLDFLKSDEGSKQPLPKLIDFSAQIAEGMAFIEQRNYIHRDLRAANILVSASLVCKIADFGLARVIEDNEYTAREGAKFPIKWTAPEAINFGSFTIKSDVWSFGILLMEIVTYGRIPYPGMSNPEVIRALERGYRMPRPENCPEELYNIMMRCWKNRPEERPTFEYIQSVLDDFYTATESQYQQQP

[19] = system: Tyrosine-protein kinase ABL1 (Homo sapiens), P00519 [T315I]; assay: Inhibition of recombinant human Abl T315I mutant (27 to end residues) at 1 uM using EAIYAAPFAKKK as substrate after 40 mins in presence of [gamma-33P]ATP by scintillation counting method
[20] = biological target: Aurora kinase A (Homo sapiens) (UniProt O14965); assay: Inhibition of recombinant full-length human Aurora-A at 1 uM using LRRASLG (kemptide) as substrate after 40 mins in presence of [gamma-33P]ATP by scintillation counting method
[21] = biological target: Casein kinase I isoform gamma-1 (Homo sapiens) (UniProt Q9HCP0); assay: Inhibition of recombinant human CK1gamma1 (25 to 355 residues) at 1 uM using KRRRALS(p)VASLPGL as substrate after 40 mins in presence of [gamma-33P]ATP by scintillation counting method
[22] = biological target: Serine/threonine-protein kinase B-raf (Homo sapiens) (UniProt P15056); assay: Inhibition of recombinant human B-raf (416 to end residues) at 1 uM using myelin basic protein as substrate after 40 mins in presence of [gamma-33P]ATP by scintillation counting method
Serine/threonine-protein kinase B-raf (Homo sapiens), sequence (P15056 whole entry): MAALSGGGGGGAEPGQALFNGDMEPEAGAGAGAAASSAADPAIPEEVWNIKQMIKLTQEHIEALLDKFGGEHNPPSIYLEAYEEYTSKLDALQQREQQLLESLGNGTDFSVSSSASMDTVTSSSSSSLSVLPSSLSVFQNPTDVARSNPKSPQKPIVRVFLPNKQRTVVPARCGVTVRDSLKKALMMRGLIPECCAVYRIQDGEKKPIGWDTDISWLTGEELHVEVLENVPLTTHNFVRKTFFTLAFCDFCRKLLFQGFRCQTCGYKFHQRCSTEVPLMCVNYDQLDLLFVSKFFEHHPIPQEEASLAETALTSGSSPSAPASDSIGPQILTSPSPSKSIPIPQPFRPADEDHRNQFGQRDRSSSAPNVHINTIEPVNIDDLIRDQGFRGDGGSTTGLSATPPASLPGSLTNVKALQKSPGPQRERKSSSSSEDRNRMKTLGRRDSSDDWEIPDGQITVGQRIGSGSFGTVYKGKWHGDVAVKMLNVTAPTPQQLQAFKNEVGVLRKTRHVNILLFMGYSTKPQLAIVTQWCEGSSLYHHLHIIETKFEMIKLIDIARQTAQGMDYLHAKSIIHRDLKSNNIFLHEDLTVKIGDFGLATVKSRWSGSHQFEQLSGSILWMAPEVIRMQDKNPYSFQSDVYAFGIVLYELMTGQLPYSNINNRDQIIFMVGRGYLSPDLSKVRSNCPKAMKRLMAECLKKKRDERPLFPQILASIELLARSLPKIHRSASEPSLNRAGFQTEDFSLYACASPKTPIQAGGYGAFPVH

[23] = biological target: SRSF protein kinase 1 (Homo sapiens) (UniProt Q96SB4); assay: Inhibition of recombinant human SRPK1 (2 to end residues) at 1 uM using RSRSRSRSRSRSRSR as substrate after 40 mins in presence of [gamma-33P]ATP by scintillation counting method
[24] = biological target: Ephrin type-A receptor 5 (Homo sapiens) (UniProt P54756); assay: Inhibition of recombinant human EPHA5 (655 to 956 residues) at 1 uM using poly(Glu,Tyr) 4:1 as substrate after 40 mins in presence of [gamma-33P]ATP by scintillation counting method
[25] = biological target: Tau-tubulin kinase 2 (Homo sapiens) (UniProt Q6IQ55); assay: Inhibition of recombinant human TTBK2 (1 to 331 residues) at 1 uM using casein as substrate after 40 mins in presence of [gamma-33P]ATP by scintillation counting method
Tau-tubulin kinase 2 (Homo sapiens), sequence (Q6IQ55 whole entry, the tested form may be a part): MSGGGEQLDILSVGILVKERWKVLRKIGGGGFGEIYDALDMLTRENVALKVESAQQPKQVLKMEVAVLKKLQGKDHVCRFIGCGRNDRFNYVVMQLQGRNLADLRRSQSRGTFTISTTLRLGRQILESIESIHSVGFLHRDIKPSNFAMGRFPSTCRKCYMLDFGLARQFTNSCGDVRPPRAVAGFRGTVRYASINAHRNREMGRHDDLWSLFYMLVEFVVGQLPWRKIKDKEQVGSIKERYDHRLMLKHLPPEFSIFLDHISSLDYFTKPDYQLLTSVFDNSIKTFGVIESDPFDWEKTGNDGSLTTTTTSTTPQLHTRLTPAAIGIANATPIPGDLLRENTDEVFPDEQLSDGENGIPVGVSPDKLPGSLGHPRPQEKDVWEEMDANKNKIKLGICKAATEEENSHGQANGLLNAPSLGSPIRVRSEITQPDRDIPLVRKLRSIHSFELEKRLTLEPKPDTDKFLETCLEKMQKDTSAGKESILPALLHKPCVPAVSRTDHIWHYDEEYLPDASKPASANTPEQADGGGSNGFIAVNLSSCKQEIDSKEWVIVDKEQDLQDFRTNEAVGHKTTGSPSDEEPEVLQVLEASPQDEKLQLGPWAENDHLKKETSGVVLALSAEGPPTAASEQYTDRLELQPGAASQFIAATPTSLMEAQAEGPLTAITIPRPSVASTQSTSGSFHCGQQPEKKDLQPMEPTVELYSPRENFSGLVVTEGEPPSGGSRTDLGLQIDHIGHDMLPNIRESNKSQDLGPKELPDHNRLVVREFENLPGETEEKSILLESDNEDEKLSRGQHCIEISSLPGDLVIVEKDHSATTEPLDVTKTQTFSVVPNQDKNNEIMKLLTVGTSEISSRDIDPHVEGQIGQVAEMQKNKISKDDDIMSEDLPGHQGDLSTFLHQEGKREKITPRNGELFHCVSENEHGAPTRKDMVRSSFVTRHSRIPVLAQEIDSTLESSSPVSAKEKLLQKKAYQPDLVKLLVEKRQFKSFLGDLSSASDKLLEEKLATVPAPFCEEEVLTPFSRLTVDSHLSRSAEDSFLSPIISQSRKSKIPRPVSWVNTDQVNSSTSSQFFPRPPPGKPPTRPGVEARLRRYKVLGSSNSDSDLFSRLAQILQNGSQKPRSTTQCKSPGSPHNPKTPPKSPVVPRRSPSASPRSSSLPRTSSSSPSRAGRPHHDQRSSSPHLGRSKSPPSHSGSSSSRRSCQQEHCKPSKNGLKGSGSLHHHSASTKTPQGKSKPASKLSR

CS(=O)(=O)c1ccc(-n2nc(-c3cnc4[nH]ccc4c3)c3c(N)ncnc32)cc1
inhibition [1]: 10%
inhibition [2]: -2%
inhibition [3]: -3%
inhibition [4]: 65%
inhibition [5]: 5%
inhibition [6]: 1%
inhibition [7]: 16%
inhibition [8]: 16%
inhibition [9]: 18%
inhibition [10]: 1%
inhibition [11]: -10%
inhibition [12]: -6%
inhibition [13]: 2%
inhibition [14]: 7%
inhibition [15]: 13%
Vd [16]: 2.15 L/kg
inhibition [17]: -1%
inhibition [18]: 93%
inhibition [19]: 13%
inhibition [20]: 15%
inhibition [21]: 4%
inhibition [22]: 89%
inhibition [23]: 1%
inhibition [24]: 8%
inhibition [25]: 4%
